According to ChEMBL document CHEMBL1201862, “PubChem BioAssay data set” (2004):
Activity calls are given as the source filed them.

Experiments:
Assay type in all cases: functional
HeLa = experiment: Cytotoxicity counterscreen assay for transcriptional activators of heat shock protein 70 (Hsp70). [Related pubchem assays: 1203, 1252 ]; details: Homo sapiens
[1] = target: T1, Replicative DNA helicase DnaB (Mycobacterium tuberculosis, UniProt P9WMR3); experiment: DnaB intein splicing inhibitors, dose response, biochemical, cell-free fluorescence (AID 449749)
T1 sequence (P9WMR3 whole entry): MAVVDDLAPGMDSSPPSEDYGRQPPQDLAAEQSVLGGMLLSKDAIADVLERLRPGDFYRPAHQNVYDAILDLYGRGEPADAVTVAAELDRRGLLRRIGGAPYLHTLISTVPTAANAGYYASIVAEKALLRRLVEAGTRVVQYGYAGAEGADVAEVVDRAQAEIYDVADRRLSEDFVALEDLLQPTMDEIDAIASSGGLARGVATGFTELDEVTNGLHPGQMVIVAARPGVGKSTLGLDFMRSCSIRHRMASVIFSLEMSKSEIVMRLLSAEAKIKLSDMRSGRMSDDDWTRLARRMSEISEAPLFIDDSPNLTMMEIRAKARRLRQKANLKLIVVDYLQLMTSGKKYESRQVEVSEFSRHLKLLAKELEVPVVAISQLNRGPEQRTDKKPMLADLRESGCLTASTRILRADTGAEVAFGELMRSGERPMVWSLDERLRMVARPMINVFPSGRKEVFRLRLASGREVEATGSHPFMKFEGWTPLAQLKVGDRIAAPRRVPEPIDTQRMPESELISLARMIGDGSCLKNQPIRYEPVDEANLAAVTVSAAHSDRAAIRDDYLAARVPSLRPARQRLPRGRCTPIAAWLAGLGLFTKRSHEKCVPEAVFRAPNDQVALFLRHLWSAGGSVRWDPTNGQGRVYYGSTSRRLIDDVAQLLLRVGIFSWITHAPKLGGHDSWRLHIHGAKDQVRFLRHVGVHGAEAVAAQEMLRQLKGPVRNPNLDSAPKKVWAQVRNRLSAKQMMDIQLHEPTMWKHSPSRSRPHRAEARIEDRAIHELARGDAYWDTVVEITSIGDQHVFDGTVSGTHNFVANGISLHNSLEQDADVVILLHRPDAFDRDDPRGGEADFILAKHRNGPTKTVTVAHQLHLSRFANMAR

[2] = viability of HCT116 lacking mutant beta-catenin – cell-based, human colon tumor, dose response (AID 1045);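 further: HCT116 colon tumor cells with beta catenin knocked out; cells exposed to compound for 60 hours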
[3] = target: T2, High affinity choline transporter 1 (Homo sapiens, UniProt Q9GZV3); experiment: human choline transporter blockers, potency – cell-based, 5-point CRC, membrane potential dye, dose response (AID 504840)
T2 sequence (Q9GZV3 whole entry): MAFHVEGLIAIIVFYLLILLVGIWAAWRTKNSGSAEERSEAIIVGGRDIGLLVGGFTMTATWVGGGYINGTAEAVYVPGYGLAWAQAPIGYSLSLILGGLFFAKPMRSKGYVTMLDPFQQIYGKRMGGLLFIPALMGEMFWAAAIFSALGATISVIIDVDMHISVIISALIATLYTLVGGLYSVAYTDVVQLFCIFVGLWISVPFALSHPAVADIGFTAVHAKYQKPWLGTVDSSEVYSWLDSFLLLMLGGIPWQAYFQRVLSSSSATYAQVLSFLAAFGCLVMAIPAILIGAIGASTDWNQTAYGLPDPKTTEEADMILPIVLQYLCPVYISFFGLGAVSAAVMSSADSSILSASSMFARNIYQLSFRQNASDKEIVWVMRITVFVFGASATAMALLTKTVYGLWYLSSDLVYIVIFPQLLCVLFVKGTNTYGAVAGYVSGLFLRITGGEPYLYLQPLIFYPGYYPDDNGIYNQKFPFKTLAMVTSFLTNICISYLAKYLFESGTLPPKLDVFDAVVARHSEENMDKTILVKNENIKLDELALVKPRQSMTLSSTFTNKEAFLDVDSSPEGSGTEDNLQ

[4] = viability of PTEN-deleted HCT116 cells – cell-based, HCT116 PTEN knockout, dose response (AID 1047);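 further: HCT116 colon tumor cells with PTEN knocked out; cells exposed to compound for 60 hours before readout; potency for loss of cell viability measured by luminescence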
Protein RecA = target: T3, Protein RecA (Mycobacterium tuberculosis, UniProt P9WHJ3); experiment: Fluorescence Cell-Free Homogeneous Dose Retest to Identify Inhibitors of RecA-Intein Splicing Activity. [Related pubchem assays (depositor defined):AID2097, AID2223, AID489010, AID492950]
T3 sequence (P9WHJ3 whole entry): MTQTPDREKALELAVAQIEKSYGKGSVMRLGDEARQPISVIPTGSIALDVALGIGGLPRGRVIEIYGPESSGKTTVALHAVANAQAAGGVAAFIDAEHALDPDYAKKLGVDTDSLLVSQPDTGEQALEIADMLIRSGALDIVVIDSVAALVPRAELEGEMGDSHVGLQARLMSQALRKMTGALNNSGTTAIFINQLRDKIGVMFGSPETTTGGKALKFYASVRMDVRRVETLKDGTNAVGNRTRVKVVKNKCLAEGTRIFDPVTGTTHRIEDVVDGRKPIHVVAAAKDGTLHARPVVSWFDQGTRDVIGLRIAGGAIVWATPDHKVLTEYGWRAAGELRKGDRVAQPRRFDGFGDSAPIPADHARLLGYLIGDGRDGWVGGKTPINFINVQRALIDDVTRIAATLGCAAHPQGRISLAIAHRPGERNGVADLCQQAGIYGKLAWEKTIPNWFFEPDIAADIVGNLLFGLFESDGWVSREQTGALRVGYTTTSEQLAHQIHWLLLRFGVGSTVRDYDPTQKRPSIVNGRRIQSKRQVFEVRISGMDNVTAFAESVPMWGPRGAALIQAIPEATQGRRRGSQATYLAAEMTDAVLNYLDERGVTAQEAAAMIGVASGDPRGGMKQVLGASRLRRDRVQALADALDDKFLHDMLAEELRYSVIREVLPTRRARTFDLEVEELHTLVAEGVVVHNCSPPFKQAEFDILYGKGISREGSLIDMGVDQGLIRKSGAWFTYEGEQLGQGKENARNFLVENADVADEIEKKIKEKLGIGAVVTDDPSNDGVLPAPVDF

[5] = antiviral protection against BTV-induced cell death – arbovirus, BSR cells, confirmation (AID 1250);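 further: protection from viral cytopathic effect measured as cell viability by ATP luminescence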
[6] = target: T4, Neuropeptide Y receptor type 1 (Homo sapiens, UniProt P25929); experiment: Fluorescence-based counterscreen for agonists of NPY-Y2: cell-based high-throughput dose response assay for agonists of NPY-Y1.
T4 sequence (P25929 whole entry): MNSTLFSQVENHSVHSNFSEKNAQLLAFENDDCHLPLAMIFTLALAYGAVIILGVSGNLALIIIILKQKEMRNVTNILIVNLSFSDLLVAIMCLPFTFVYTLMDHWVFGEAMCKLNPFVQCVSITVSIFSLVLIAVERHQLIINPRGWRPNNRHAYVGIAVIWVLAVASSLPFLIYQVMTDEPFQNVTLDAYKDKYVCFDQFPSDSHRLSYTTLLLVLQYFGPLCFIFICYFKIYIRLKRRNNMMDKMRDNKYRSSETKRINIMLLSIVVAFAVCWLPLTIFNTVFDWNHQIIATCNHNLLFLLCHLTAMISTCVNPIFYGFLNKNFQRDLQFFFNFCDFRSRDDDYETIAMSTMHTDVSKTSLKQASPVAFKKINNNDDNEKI

[7] = target: T5, Neuropeptide Y receptor type 2 (Homo sapiens, UniProt P49146); experiment: Fluorescence-based cell-based high-throughput dose response assay for agonists of NPY-Y2. [Related pubchem assays: 1703 (Screening assay (CNGC inhibitors).), 1359 (Screening assay (NPY-Y2 potentiators or agonists).), 1304 (Screening assay (NPY-Y1 potentiators or agonists).), 1710 (Screening assay (NPY-Y2 agonists).), 1791 (Summary AID.)]
T5 sequence (P49146 whole entry): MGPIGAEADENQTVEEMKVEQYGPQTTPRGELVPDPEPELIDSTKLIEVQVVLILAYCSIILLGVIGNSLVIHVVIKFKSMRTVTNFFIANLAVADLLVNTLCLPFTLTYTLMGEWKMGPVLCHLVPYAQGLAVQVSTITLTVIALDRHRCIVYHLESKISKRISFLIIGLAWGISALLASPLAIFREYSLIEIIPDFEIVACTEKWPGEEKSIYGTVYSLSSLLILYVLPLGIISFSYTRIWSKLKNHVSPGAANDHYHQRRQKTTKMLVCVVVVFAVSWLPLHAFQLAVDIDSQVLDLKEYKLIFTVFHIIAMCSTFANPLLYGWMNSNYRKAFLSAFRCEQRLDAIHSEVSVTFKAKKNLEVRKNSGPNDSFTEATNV

HEK293 = experiment: Fluorescence-based counterscreen for potentiators or agonists of NPY-Y2: cell-based high-throughput dose response assay to identify inhibitors of cyclic nucleotide gated ion channel (CNGC) activity. In this assay, the parental HEK293 cell line transfected with a cyclic-nucleotide gated ion channel (CNGC)-based cAMP sensor is used to measure inhibition of isoproterenol-induced CNGC activity by test compound.; details: Homo sapiens
Bcl-2-like protein 10 = target: T6, Bcl-2-like protein 10 (Homo sapiens, UniProt Q9HD36); experiment: Concentration-response of Bcl-B inhibitors by biochemical FP with TR3 (AID 1243)
T6 sequence (Q9HD36 whole entry): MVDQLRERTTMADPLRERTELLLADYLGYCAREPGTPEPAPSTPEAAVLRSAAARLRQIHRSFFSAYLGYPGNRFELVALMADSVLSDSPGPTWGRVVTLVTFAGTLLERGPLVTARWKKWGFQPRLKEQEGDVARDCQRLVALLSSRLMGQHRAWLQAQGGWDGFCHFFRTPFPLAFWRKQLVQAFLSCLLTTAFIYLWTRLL
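Wherever CC50 is given: cells exposed to compound for 16 hours before readout.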

## Cc1cc(C(=O)Cn2ncc(Cl)c(Cl)c2=O)c(C)n1CC(F)(F)F
HeLa
  CC50: > 11 µM (not active)
[1]
  AC50: 3.01 µM (active)
[2]
  EC50: 2.06 µM (active)
[3]
  IC50: 20.9 µM (active)
[4]
  EC50: 3.03 µM (active)
Protein RecA
  EC50: 2.72 µM (active)

## CN(Cc1ccccc1NC(=O)c1ccc(S(=O)(=O)N(C)C)cc1)C1CCCCC1
[5]
  IC50: 29.9 µM (active)

## Cc1ccc(Cl)cc1NC(=O)c1cc2ccccc2cc1O
[6]
  EC50: 17.1 µM (not active)
[7]
  EC50: 15.1 µM (not active)
HEK293
  EC50: > 35.4 µM (not active)

## O=C(O)c1cccc(-c2ccc(/C=N/Nc3ccc([N+](=O)[O-])cn3)o2)c1
Bcl-2-like protein 10
  EC50: 9.64 µM (active)
